Results as given in patent publication US20110098177A1, “METHODS AND COMPOSITIONS OF PLANT MICRONUTRIENTS” (NOVUS INTERNATIONAL INC., priority 2006, published 2011).
“Also recorded” adds a separate entry of the source.

Columns and labels:
Format in all cases: in vivo
Tygress tomato plants [1] = assay: Foliar nutrient concentration at 6 WAT, open-field tomato (Examples 7-10); conditions: in vivo
How it was run: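 Open-field Florida trial, spring 2008: transplants at 4-true-leaf stage on drip-irrigated raised beds were foliar-sprayed at 3 and 5 WAT (BIOX-CM at 4 and 5 WAT) at 60 gal/acre with non-ionic surfactant. Most recent mature leaves were sampled at 6 WAT. Tomato fruit was USDA-graded and analysed for minerals.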

[2] = test system: Patriot bell pepper plants; assay: Foliar nutrient concentration at 6 WAT, open-field bell pepper (Examples 7-10); conditions: in vivo
Method: (§1) The following experiments were performed in open-field plots during the spring of 2008 at GCREC, Balm, University of Florida. Four products delivering Zn (BIOX-Z), Mn (BIOX-M), Cu (BIOX-Cu), and Fe (BIOX-Fe) were compared to other micronutrient supplement formulations in tomato and bell pepper plants.
(§2) The plot sizes for the tomato plants were 30-ft plots (15 plants per plot) and 15-ft plots were used for the bell pepper plants (30 plants per plot). Crop set-up, procedures and variables were as follows.
(§3) Transplants of ‘Tygress’ tomato plants and ‘Patriot’ bell pepper plants in the 4-true leaf stage (about 6 inches tall) were planted in raised beds in open-field plots. The cross-section of each raised bed was 28 inches wide at the top, 32 inches wide at the base, and 8 inches tall. Irrigation and non-micronutrient fertilizer were provided daily through two drip lines per bed (0.45 gal/100 ft bed/min) at recommended rates for tomato and bell pepper production in Florida. […] The height of the plants for each of the treatment groups was measured at 3 weeks after transplantation (WAT), just prior to treatment with the experimental foliar fertilizers.
(§4) All foliar fertilizers except BIOX-CM were applied to the various treatment groups at 3 weeks after transplantation (WAT) and again at 5 WAT. The BIOX-CM treatment was applied at 4 and 5 WAT. The working water volume was 60 gal/acre and a non-ionic surfactant (Ad-Spray 80) was added in the amount of 2 pints/100 gal water. All plots were sprayed with sprayers pressurized at 25 psi and the canopies of both crops were covered with the micronutrient solutions. Treated plots were isolated during foliar fertilizer application to avoid the cross-contamination of other treatments on adjoining plots.
(§5) Leaf samples were collected from the most recent mature leaves from each plant at 6 WAT (2 weeks after initial treatment). Foliar tissue analysis was performed by a commercial laboratory to determine the concentration of N, P, K, Mg, Ca, B, Zn, Mn, Fe, and Cu. Tomato marketable fruit weights were collected at 10 and 12 WAT, and the fruits were graded according to USDA standards. Pepper marketable fruit weights were determined beginning at 5 WAT over 5 weekly harvests. Fruit mineral analysis (N, P, K, Mg, Ca, B, Zn, Mn, Fe, and Cu) was performed on samples from the tomato harvest.
(§6) The experimental design was a randomized complete block design with 5 replications for each treatment. All comparison data were analyzed using a general linear model and the means of each treatment were separated with a Fisher's protected LSD test at the 5% significance level.

Tygress tomato plants [3] = assay: Nutrient concentration of tomato fruits at 10 WAT, open field (Examples 7-10); conditions: in vivo
Method: as §1, §2, §3, §4, §5, §6

Florida-47 tomato = conditions: in vivo
How it was run: (§7)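 Florida-47 tomato and Aristotle bell pepper transplants in 2-gal pots with low-nutrient medium (pH 5.36), drip-irrigated; products at three rates in deionized water plus non-ionic surfactant sprayed on newly matured leaves at 3 and 7 WAT. Toxicity scored at 4 WAT (0=no damage, 10=death); foliar tissue analysed at 6 WAT; marketable fruit harvested 4 times (tomato).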

Aristotle bell pepper = conditions: in vivo
How it was run: as §7

Tygress tomato plants [4] = conditions: BIOX-Cu at 0.46 and 0.55 lb/acre; Cu-sulfate at 0.8 lb/acre; BIOX-EDC at 0.4 lb/acre
Method: (§8) The following experiments were performed in a green house during the spring of 2009 at GCREC, Balm, University of Florida. Crop set-up, procedures and variables were as follows.
(§9) Transplants of ‘Tygress’ tomato plants were planted in 2-gallon pots filled with commercial planting medium with nutrient concentration of Fe, Zn, Mn, Cu being negligible and insufficient for crop growth. Irrigation and non-micronutrient fertilizer were provided daily through microsprinklers at recommended rates for tomato production in Florida. No pesticides were used. Treatments were as described in Tables 42, 43, and 44 below. BIOX-Cu was compared to Cu-sulfate, BIOX-EDC, and BIOX-O; and BIOX-Fe was compared to Fe-sulfate and BIOX-EDF. BIOX-MEZ is Ca-HMTBA.
(§10) Treatments were applied at 6 WAT (weeks after transplanting) using a water volume of 200 mL/plant. Deionized water was used for foliar applications. A non-ionic surfactant was added. Other nutrients were applied as appropriate under non-limiting conditions.
Toxicity of the treatments was assessed by rating foliar tissue using a visual scale, where 0=no injury and 10=plant death.
(§11) Experimental design was a randomized complete block design with 6 replications. Data were analyzed using a general linear model, and means were separated using an LSD test at the 5% significance level.

Tygress tomato plants [5] = assay: Marketable yield, open-field tomato (Examples 7-10); conditions: in vivo
Method: as §1, §2, §3, §4, §5, §6

Tygress tomato plants [6] = assay: Yields of tomato fruits, greenhouse spring 2009 (Examples 13-15); conditions: BIOX-Cu at 0.46 and 0.55 lb/acre; Cu-sulfate at 0.8 lb/acre; BIOX-EDC at 0.4 lb/acre
Method: as §8, §9, §10
Marketable fruit were collected three times during the growing season, starting at 10 WAT (4 weeks after the initial treatment). Tomato fruit was graded as marketable and non-marketable. Marketable fruit was sized as extra-large, large, and medium. Non-marketable fruit were harvested and number and weight recorded but not sized.
as §11

[7] = test system: Patriot bell pepper plants; assay: Marketable yield, open-field bell pepper (Examples 7-10); conditions: in vivo
Method: as §1, §2, §3, §4, §5, §6

Tygress tomato plants [8] = assay: Foliar nutrient concentration at 7 WAT, greenhouse tomato spring 2009 (Examples 13-15); conditions: 7 WAT (1 week after treatment)
Method: as §8, §9, §10
Foliar tissue nutrient analysis was performed at 3 WAT (i.e., 3 weeks before treatment) and 7 WAT (i.e., 1 weeks after treatment) on the non-applied newest leaves. The concentrations of N, P, K, Mg, Ca, B, Zn, Mn, Fe, and Cu in the foliar tissue were determined by a commercial laboratory. There were no significant differences between the foliar nutrient concentrations of any of the treatment groups prior to treatment.
as §11

In the case of `O=S(=O)([O-])[O-].[Cu+2]` [BIOX-INC, copper sulfate], the “Foliar B concentration of tomato plants” value (Tygress tomato plants [1]) is reported as 40 ppm, the “Foliar Ca concentration of tomato plants” value (Tygress tomato plants [1]) is reported as 2.0% and the “Foliar Cu concentration of tomato plants” value (Tygress tomato plants [1]) is reported as 503 a ppm. For the same compound, the “Foliar Fe concentration of tomato plants” value (Tygress tomato plants [1]) was 71 ppm, the “Foliar K concentration of tomato plants” value (Tygress tomato plants [1]) was 5.3% and the “Foliar Mg concentration of tomato plants” value (Tygress tomato plants [1]) was 0.60%. For the same compound, the “Foliar Mn concentration of tomato plants” value (Tygress tomato plants [1]) was 208 ppm, the “Foliar N concentration of tomato plants” value (Tygress tomato plants [1]) was 4.7% and the “Foliar P concentration of tomato plants” value (Tygress tomato plants [1]) was 0.17%. The “Foliar Zn concentration of tomato plants” value (Tygress tomato plants [1]) was 281 ppm, the “Foliar concentration of Cu of tomato plants compared to control, statement” value (Tygress tomato plants [1]) was “significant increase in the foliar concentration of Cu” and the “Foliar B concentration of bell pepper plants” value [2] was 39 ppm. The “Foliar Ca concentration of bell pepper plants” value [2] was 2.0%, the “Foliar Cu concentration of bell pepper plants” value [2] was 503 a ppm and the “Foliar Fe concentration of bell pepper plants” value [2] was 71 ppm. The “Foliar K concentration of bell pepper plants” value [2] was 5.3%, the “Foliar Mg concentration of bell pepper plants” value [2] was 0.60% and the “Foliar Mn concentration of bell pepper plants” value [2] was 208 ppm. For the same compound, the “Foliar N concentration of bell pepper plants” value [2] was 4.7%, the “Foliar P concentration of bell pepper plants” value [2] was 0.17% and the “Foliar Zn concentration of bell pepper plants” value [2] was 281 ppm. For the same compound, the “Foliar concentration of Cu of bell pepper plants compared to control, statement” value [2] was “significant increase in the foliar concentration of Cu”, the “B concentration of tomato fruits” value (Tygress tomato plants [3]) was 21 ppm and the “Ca concentration of tomato fruits” value (Tygress tomato plants [3]) was 0.2%. For the same compound, the “Cu concentration of tomato fruits” value (Tygress tomato plants [3]) was 22 ppm, the “Fe concentration of tomato fruits” value (Tygress tomato plants [3]) was 85 ppm and the “K concentration of tomato fruits” value (Tygress tomato plants [3]) was 8.0%. The “Mg concentration of tomato fruits” value (Tygress tomato plants [3]) was 0.38%, the “Mn concentration of tomato fruits” value (Tygress tomato plants [3]) was 42 ppm and the “N concentration of tomato fruits” value (Tygress tomato plants [3]) was 4.4%. The “P concentration of tomato fruits” value (Tygress tomato plants [3]) was 0.68%, the “Zn concentration of tomato fruits” value (Tygress tomato plants [3]) was 332 ppm and the Tomato toxicity (Florida-47 tomato) was 0. For the same compound, the Pepper toxicity (Aristotle bell pepper) was 0, the “Toxicity compared to non-treated control plants, statement” value (Tygress tomato plants [4]) was “increased levels of toxicity” and the “Marketable yield, Tomato” value (Tygress tomato plants [5]) was 17.4 a ton/acre. For the same compound, the “Tomato marketable yield compared to control, statement” value (Tygress tomato plants [5]) was “significantly increased tomato marketable yields relative to control; also recorded: significantly higher marketable yield of tomato fruits compared to control”, the “Marketable tomato yields compared to non-treated control, statement” value (Tygress tomato plants [6]) was “did not alter marketable yields relative to the non-treated control” and the “Marketable yield, Bell Pepper” value [7] was 7.3 ton/acre. The “Copper concentrations in tomato leaves, statement” value (Tygress tomato plants [8]) was “highest leaf copper concentrations”.
